Data taken from US8207119B2, “Ophthalmological composition” (Nihon Tenganyaku Kenkyusho Co., Ltd., priority 2002, dated 2012).

Assays:
[1] = system: rabbit corneal wound model; test: Corneal wound healing promotion action 1 (in vivo), approx. 6 mm corneal epithelial abrasion; set-up: species or system Japanese white rabbit; conditions: 5 μM eye drop, 30 μl per instillation; 0 hr after abrasion; mean ± SD, n=6
Method: (2) Corneal Wound Healing Promotion Action 1 (In Vivo)
Using a male Japanese white rabbit, a wound of approximately 6 mm in diameter was produced in the cornea by inducing corneal epithelial abrasion in accordance with the method of Cintron et al. (Ophthalmic Res., 11, pp. 90-96 (1979)). The wound area was measured using the fluorescein-stained area as an index. The effects of the test compound on corneal wound healing were examined.
The eye drops containing the respective concentrations of the test compound were instilled (30 μl at a time) at 0, 3, 6, 9, 12, 18, 24, 27, 30, 33, 36, 42, and 48 hours after inducing corneal epithelial abrasion. In measuring the wound area, fluorescein staining was carried out and a photograph of the cornea was measured. The fluorescein-stained area of the photographed cornea was computed using an image analysis processing system.
(§1) In Tables 1 and 2, the respective values indicate the mean value±standard deviation (n=6). Statistical analysis was carried out using Dunnett's multiple comparison with respect to PBS with the area of the corneal wound portion immediately after (0 hours after) corneal epithelial abrasion being set to 100% (*p<0.05, **p<0.01; vs. control).

[2] = system: rabbit corneal wound model; test: Corneal wound healing promotion action 2 (in vivo), approx. 8 mm corneal epithelial abrasion; set-up: species or system Japanese white rabbit; conditions: 0.3% eye drop, 25 μl per instillation; 0 hr after abrasion; mean ± SD, n=6
Method: (3) Corneal Wound Healing Promotion Action 2 (In vivo)
Using the same method as (2) above, corneal epithelial abrasion was induced in a Japanese white rabbit to produce a wound of approximately 8 mm in diameter in the cornea. The wound area was measured using the fluorescein-stained area as an index to examine the effects on corneal wound healing.
The eye drops containing the respective concentrations of the test compound were instilled (25 μl at a time) at 0, 6, 12, 18, 24, 30, 36, 42, 48, and 54 hours after induction corneal epithelial abrasion. In measuring the wound area, fluorescein staining was carried out and a photograph of the cornea was measured. The fluorescein-stained area of the photographed cornea was computed using an image analysis processing system.
as §1, with “Tables 3” for “Tables 1”, “and 4,” for “and 2,”, “to physiological saline” for “to PBS”

| Substance | Healing ratio (%) [1] [%] | Healing ratio (%) [2] [%] |
| --- | --- | --- |
| EGF: polypeptide with a molecular weight of 6000, mitosis-promoting growth factor for corneal epithelium (NSDSECPLSHDGYCLHDGVCMYIEALDKYACNCVVGYIGERCQYRDLKWWELR; Epidermal growth factor; UniProt P01133 971-1023, looked up) | 0 |  |
| hyaluronic acid |  | 0 |
